Data as given in patent US20260297083A1, “SUBSTITUTED ACETYLENE COMPOUND DERIVATIVES AND THEIR PHARMACEUTICAL USE” (AVELOS THERAPEUTICS INC., priority 2023, published 2026).
pIC50: −log10 of the molar value.

These compounds were tested on DLD-1 BRCA2(−/−) Cell (assay: Cell viability assay (Resazurin) in DLD1-BRCA2 cells). Conditions: 14 days, 1,500 cells/well, final DMSO 1%.
Assay type: cell-based
Method in brief: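 DLD1-BRCA2 KG cells seeded at 1,500/well (parental 600/well) in RPMI-1640 with 10% FBS, compound added after 4 h (1% DMSO), media replaced every 3-4 days over 14 days at 37° C. Viability read by resazurin (0.1 mg/ml, 4 h) fluorescence at Ex/Em 560/590 nm; IC50 fitted.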

Compound	pIC50
(S)-N-(3-(6-aminopyridazin-3-yl)prop-2-yn-1- yl)-2-(6-methyl-4-(trifluoromethyl)pyridin-2- yl)-N-(m-tolyl)isothiazolidine-3-carboxamide 1,1-dioxide [Example 19]	5.30 to 5.96

Same assay, conditions: Homo sapiens, DLD-1, 336 h, 14 days, 1,500 cells/well, final DMSO 1%

Compound	pIC50
Cc1cc(C(F)(F)F)cc(N2[C@H](C(=O)N(CC#Cc3cccc(C(N)=O)c3)c3ccc(F)c(C)c3)CCS2(=O)=O)n1 [Example 106, (S)-N-(3-(3-carbamoylphenyl)prop-2-yn-1-yl)-N-(4-fluoro-3-methylphenyl)-2-(6-methyl-4-(trifluoromethyl)pyridin-2-yl)isothiazolidine-3-carboxamide 1,1-dioxide]	5.30 to 5.96
Cc1cccc(N(CC#Cc2ccc(N)nn2)C(=O)[C@@H]2CN(C)S(=O)(=O)N2c2cc(C(F)(F)F)cc(C)n2)c1 [Example 107, (3S)-N-[3-(6-aminopyridazin-3-yl)prop-2-ynyl]-5-methyl-2-[6-methyl-4-(trifluoromethyl)-2-pyridyl]-N-(m-tolyl)-1,1-dioxo-1,2,5-thiadiazolidine-3-carboxamide]	5.30 to 5.96
Cc1cccc(N(CC#Cc2cnc(N)cn2)C(=O)[C@@H]2CN(C)S(=O)(=O)N2c2cc(C(F)(F)F)cc(C)n2)c1 [Example 108, (S)-N-(3-(5-aminopyrazin-2-yl)prop-2-yn-1-yl)-5-methyl-2-(6-methyl-4-(trifluoromethyl)pyridin-2-yl)-N-(m-tolyl)-1,2,5-thiadiazolidine-3-carboxamide 1,1-dioxide]	5.30 to 5.96
Cc1cc(C(F)(F)F)cc(N2[C@H](C(=O)N(CC#Cc3ccc(N)nn3)c3ccc(F)c(C)c3)CN(C)S2(=O)=O)n1 [Example 109, (S)-N-(3-(6-aminopyridazin-3-yl)prop-2-yn-1-yl)-N-(4-fluoro-3-methylphenyl)-5-methyl-2-(6-methyl-4-(trifluoromethyl)pyridin-2-yl)-1,2,5-thiadiazolidine-3-carboxamide 1,1-dioxide]	5.30 to 5.96
Cc1cc(C(F)(F)F)cc(N2[C@H](C(=O)N(CC#Cc3ccc(N)nn3)c3ccc(F)c(C)c3)CN(C(C)C)S2(=O)=O)n1 [Example 110, (S)-N-(3-(6-aminopyridazin-3-yl)prop-2-yn-1-yl)-N-(4-fluoro-3-methylphenyl)-5-isopropyl-2-(6-methyl-4-(trifluoromethyl)pyridin-2-yl)-1,2,5-thiadiazolidine-3-carboxamide 1,1-dioxide]	5.30 to 5.96
Cc1cc(C(F)(F)F)cc(N2[C@H](C(=O)N(CC#Cc3ccc(C(=O)N(C)C)nc3)c3ccc(F)c(C)c3)CCS2(=O)=O)n1 [Example 111, (S)-N-(3-(6-(dimethylcarbamoyl)pyridin-3-yl)prop-2-yn-1-yl)-N-(4-fluoro-3-methylphenyl)-2-(6-methyl-4-(trifluoromethyl)pyridin-2-yl)isothiazolidine-3-carboxamide 1,1-dioxide]	> 6.00
Cc1cc(C(F)(F)F)cc(N2[C@H](C(=O)N(CC#Cc3ccc(C#N)nc3)c3ccc(F)c(C)c3)CCS2(=O)=O)n1 [Example 115, (S)-N-(3-(6-cyanopyridin-3-yl)prop-2-yn-1-yl)-N-(4-fluoro-3-methylphenyl)-2-(6-methyl-4-(trifluoromethyl)pyridin-2-yl)isothiazolidine-3-carboxamide 1,1-dioxide]	> 6.00
Cc1cc(C(F)(F)F)cc(N2[C@H](C(=O)N(CC#Cc3ccc(-c4ncon4)nc3)c3ccc(F)c(C)c3)CCS2(=O)=O)n1 [Example 116, (S)-N-(3-(6-(1,2,4-oxadiazol-3-yl)pyridin-3-vl)prop-2-yn-1-yl)-N-(4-fluoro-3-methylphenyl)-2-(6-methyl-4-(trifluoromethyl)pyridin-2-yl)isothiazolidine-3-carboxamide 1,1-dioxide]	> 6.00
Cc1cc(C(F)(F)F)cc(N2[C@H](C(=O)N(CC#Cc3ccc(C(N)=O)nc3C)c3ccc(F)c(C)c3)CCS2(=O)=O)n1 [Example 117, (S)-N-(3-(6-carbamoyl-2-methylpyridin-3-yl)prop-2-yn-1-yl)-N-(4-fluoro-3-methylphenyl)-2-(6-methyl-4-(trifluoromethyl)pyridin-2-yl)isothiazolidine-3-carboxamide 1,1-dioxide]	> 6.00
